In PubChem BioAssay AID434987 (Southern Research Specialized Biocontainment Screening …, 2010) one finds IC50 and IC90 data, which are given here for 23 compounds.

Activity calls are given as the source filed them. How the calls were made is not given here.

This experiment relates to M. tuberculosis H37Rv growth inhibition with meropenem. The experiment in a line: dose response, H37Rv, with and without meropenem (AID 434987).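 Further: growth over 7 days at 37 °C before Alamar Blue read on day 9.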
Where [1] appears, read: M. tuberculosis H37Rv growth inhibition, measured here: IC50 without meropenem.
Setting [2] is: M. tuberculosis H37Rv growth inhibition, measured here: IC90 without meropenem.
[3] abbreviates: measured here: IC90 with meropenem.

As a reminder, the IC50 is the point on the concentration scale where inhibition reaches its midpoint. For orientation: IC90 means the concentration needed for an effect of 90%. Lower therefore signals an effect from little substance.

`Cc1ccc(C)c(S(=O)(=O)N2CCN(CC(=O)NC(C)c3ccccc3)CC2)c1` (configuration not stated): the IC50 is 98 µM (inactive). Under setting [1], this compound came in with an IC50 of 99.7 µM. Besides, under setting [2], the IC90 was greater than 100 µM. Under setting [3], this compound gave a 90% effect concentration (IC90) greater than 100 µM.
In the case of `O=c1c2cc(Cl)ccc2[nH]c(=S)n1Cc1cccs1`, the IC50 is 5.72 µM. For the same compound, the 50% inhibitory concentration (IC50) under setting [1] was found to be 20.4 µM. The compound also showed a 90% effect concentration (IC90) under setting [2] greater than 50 µM. For the same compound, the 90% effect concentration (IC90) under setting [3] stood at 13.2 µM.
Taken in the same sequence, the figures for `CCOC(=O)c1cnc2cc(-c3ccc(C(C)(C)C)cc3)nn2c1N` were 0.899 µM, 12.1 µM, greater than 100 µM and 5.74 µM.
For `Cc1ccc(C2=N/C(=C\c3cccc(F)c3)C(=O)O2)cc1` the same measures were 1.49 µM, 7.03 µM, 79.6 µM and 4.02 µM.
For `COc1ccccc1-c1cc(C(=O)Nc2c(C)n(C)n(-c3ccccc3)c2=O)no1`, the IC50 is 6.68 µM. The compound further returned an IC50 under setting [1] of 39.2 µM. Moreover, under setting [2], the IC90 turned out to be 88.1 µM. Further, the IC90 under setting [3] stood at 19.5 µM.
Taken in the same sequence, the figures for `CCn1c(=O)c2cc(C(=O)N(C)c3ccccc3F)sc2c2ccccc21` were 29.2 µM, greater than 100 µM, greater than 100 µM and greater than 100 µM.
Taken in the same sequence, the figures for `COc1ccc(-c2csc(-c3cccs3)n2)c(OC)c1` were 67.6 µM (inactive), 68.2 µM, greater than 100 µM and greater than 100 µM.
Regarding `C=C(C)C(=O)O[C@H]1C/C(C)=C\C(=O)/C=C(\C)[C@H](O)[C@@H]2OC(=O)C(=C)[C@@H]21`, the 50% inhibitory concentration (IC50) was 10.3 µM. This compound came in with an IC50 under setting [1] of 41.1 µM. Under setting [2], this compound displayed a 90% effect concentration (IC90) of 56 µM. The compound also registered an IC90 under setting [3] of 31.3 µM.
For `CC(/C=N/NC(=O)c1cc(C(C)(C)C)[nH]n1)=C\c1ccccc1` the same measures were > 100 µM (inactive), greater than 100 µM, greater than 100 µM and greater than 100 µM.
Taken in the same sequence, the figures for `O=C(Nc1nnc(-c2ccc3c(c2)OCCO3)o1)C1CCCCC1` were 16.3 µM, 55 µM, greater than 100 µM and greater than 100 µM.
For `O=C(COC(=O)c1ccc([N+](=O)[O-])s1)NCc1ccc(F)cc1` the same measures were 37.9 µM (inactive), 56.6 µM, greater than 100 µM and greater than 100 µM.
Regarding `OC(COC(c1ccccc1)c1ccccc1)CN1CCN(c2cccc(Cl)c2)CC1` (configuration not stated), the IC50 is 44.6 µM (inactive). Besides, under setting [1], the half-inhibitory concentration (IC50) was determined as 47.4 µM. In addition, the IC90 under setting [2] was greater than 100 µM. Under setting [3], the 90% effect concentration (IC90) is greater than 100 µM.
`CCCC(=O)Nc1nc(-c2ccccc2)ns1`: the IC50 is > 100 µM (inactive). Moreover, the 50% inhibitory concentration (IC50) under setting [1] was greater than 100 µM. Under setting [2], the 90% effect concentration (IC90) is greater than 100 µM. For the same compound, under setting [3], the IC90 was greater than 100 µM.
On to `O=C(NC(=S)N1CCOCC1)c1ccc([N+](=O)[O-])cc1`, for which the IC50 was 20.7 µM (inactive). Moreover, under setting [1], the IC50 stood at 46.8 µM. The compound also had a concentration for an effect of 90% (IC90) under setting [2] greater than 100 µM. This compound also had an IC90 under setting [3] greater than 100 µM.
On to `O=C(CSc1nnc(SCc2ccc(Cl)cc2)s1)c1ccc2c(c1)OCO2`, for which the IC50 was > 100 µM (inactive). Besides, under setting [1], the IC50 was greater than 100 µM. Under setting [2], this compound gave an IC90 greater than 100 µM. The compound further displayed a 90% effect concentration (IC90) under setting [3] greater than 100 µM.
Consider `COc1ccc(C(=O)Nc2nc3ccc(OC)cc3s2)cc1`, for which the IC50 was 21.2 µM. Further, the half-maximal inhibitory concentration (IC50) under setting [1] turned out to be 65.1 µM. The compound further returned an IC90 under setting [2] greater than 100 µM. Under setting [3], this compound came in with an IC90 greater than 100 µM.
`Cc1cc2c(=O)oc(-c3ccc(Br)cc3)nc2s1`: the IC50 was > 100 µM (inactive). Besides, under setting [1], the IC50 was greater than 100 µM. Besides, the concentration for an effect of 90% (IC90) under setting [2] is greater than 100 µM. The concentration for an effect of 90% (IC90) under setting [3] was greater than 100 µM.
In the case of `CCSc1nc2ccccc2c(=O)n1CCc1ccc(OC)c(OC)c1`, the IC50 is > 100 µM (inactive). Besides, under setting [1], the 50% inhibitory concentration (IC50) was greater than 100 µM. The compound further gave a 90% effect concentration (IC90) under setting [2] greater than 100 µM. The compound also displayed an IC90 under setting [3] greater than 100 µM.
For the compound `CSc1ccc(CCNC(=O)c2cc(C)nn2-c2ccccc2)cc1`, the IC50 is > 100 µM (inactive). The compound further gave an IC50 under setting [1] greater than 100 µM. The 90% effect concentration (IC90) under setting [2] was greater than 100 µM. Also, under setting [3], the IC90 was greater than 100 µM.
Consider `COc1ccc([N+](=O)[O-])cc1NC(=O)c1ccc(Br)s1`, for which the IC50 was > 100 µM (inactive). In addition, under setting [1], the IC50 is greater than 100 µM. This compound also showed a concentration for an effect of 90% (IC90) under setting [2] greater than 100 µM. In addition, the IC90 under setting [3] is greater than 100 µM.
As to `COc1ccc2ccccc2c1/C=N/NC(=O)c1cccc(Br)c1`, the IC50 was > 100 µM (inactive). Moreover, under setting [1], the IC50 was greater than 100 µM. Further, under setting [2], the concentration for an effect of 90% (IC90) was greater than 100 µM. The compound further displayed an IC90 under setting [3] greater than 100 µM.
`CC(C(=O)Nc1cc([N+](=O)[O-])ccc1Cl)N1CCN(c2ccccc2O)CC1` (configuration not stated): the IC50 was > 100 µM (inactive). The half-maximal inhibitory concentration (IC50) under setting [1] was greater than 100 µM. Under setting [2], the 90% effect concentration (IC90) is greater than 100 µM. Under setting [3], this compound returned an IC90 greater than 100 µM.
Turning to `COC(=O)Cn1nc(-c2ccccc2)c2ccccc21`, the IC50 is > 100 µM (inactive). The same compound yielded an IC50 under setting [1] greater than 100 µM. Further, the IC90 under setting [2] is greater than 100 µM. Under setting [3], the IC90 was greater than 100 µM.
